The source made the active and inactive calls. The rule behind the calls is not given here. Peptide text beside a SMILES is read from it.
Legend:
[1] = target: T1, Glucagon receptor (Homo sapiens, UniProt P47871); experiment: Antagonist activity at human GCGR expressed in HEK293 cells assessed as inhibition of glucogon-induced cAMP production; type: functional, cell-based
[2] = target: T1, Glucagon receptor; experiment: Antagonist activity at human GCGR expressed in HEK293 cells assessed as inhibition of glucogon-induced cAMP production by schild plot analysis; type: functional, cell-based; settings: dose 0.1-1.6 µM
[3] = target: T1, Glucagon receptor; experiment: Partial antagonist activity at human GCGR expressed in HEK293 cells assessed as inhibition of glucogon-induced cAMP production; type: functional, cell-based; settings: filed as antagonist
[4] = target: T1, Glucagon receptor; experiment: Displacement of 125I-glucagon from human GCGR expressed in HEK293 cells membranes incubated for 6 hrs by liquid scintillation counting method; type: cell membranes, Membrane
[5] = target: Glucagon receptor (Rattus norvegicus) (UniProt P30082); experiment: Displacement of 125I-glucagon from GCGR of rat liver membrane; type: cell membranes
Glucagon receptor (Rattus norvegicus), sequence (P30082 whole entry): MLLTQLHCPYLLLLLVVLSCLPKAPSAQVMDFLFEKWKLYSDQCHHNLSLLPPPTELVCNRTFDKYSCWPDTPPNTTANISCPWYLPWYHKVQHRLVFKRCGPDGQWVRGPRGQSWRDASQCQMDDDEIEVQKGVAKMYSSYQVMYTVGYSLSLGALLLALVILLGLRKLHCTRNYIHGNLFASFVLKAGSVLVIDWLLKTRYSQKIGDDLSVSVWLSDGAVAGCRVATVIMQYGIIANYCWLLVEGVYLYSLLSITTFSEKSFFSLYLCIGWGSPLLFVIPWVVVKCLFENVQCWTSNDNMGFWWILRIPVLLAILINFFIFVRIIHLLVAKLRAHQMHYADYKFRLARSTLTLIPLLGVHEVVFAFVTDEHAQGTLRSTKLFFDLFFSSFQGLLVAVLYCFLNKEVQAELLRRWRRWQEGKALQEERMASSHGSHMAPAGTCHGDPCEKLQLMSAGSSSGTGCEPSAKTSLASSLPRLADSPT

T1 sequence (P47871 whole entry): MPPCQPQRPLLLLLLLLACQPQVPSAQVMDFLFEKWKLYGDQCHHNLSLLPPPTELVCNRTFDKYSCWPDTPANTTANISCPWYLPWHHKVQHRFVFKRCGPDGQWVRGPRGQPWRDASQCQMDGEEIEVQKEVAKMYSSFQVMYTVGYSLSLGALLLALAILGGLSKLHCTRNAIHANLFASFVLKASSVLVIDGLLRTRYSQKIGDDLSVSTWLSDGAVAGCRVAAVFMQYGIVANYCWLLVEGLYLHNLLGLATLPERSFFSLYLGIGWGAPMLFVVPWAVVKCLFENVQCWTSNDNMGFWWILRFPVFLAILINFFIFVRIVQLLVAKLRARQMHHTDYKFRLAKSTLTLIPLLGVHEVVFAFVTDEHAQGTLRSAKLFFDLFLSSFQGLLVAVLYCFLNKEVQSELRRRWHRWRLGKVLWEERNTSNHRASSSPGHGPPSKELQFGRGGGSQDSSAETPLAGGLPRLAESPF

Row | IC50 [1] | Activity ([2]; filed as antagonist) | Compound | also measured
1 | 40 nM | Dose-Dependent Effect | CSCC[C@H](NC(=O)[C@H](CC(C)C)NC(=O)[C@H](Cc1c[nH]c2ccccc12)NC(=O)[C@H](CCC(N)=O)NC(=O)[C@@H](NC(=O)[C@H](Cc1ccccc1)NC(=O)[C@H](CC(=O)O)NC(=O)[C@H](CCC(N)=O)NC(=O)[C@H](C)NC(=O)[C@H](CCCNC(=N)N)NC(=O)[C@H](CCCNC(=N)N)NC(=O)[C@H](CO)NC(=O)[C@H](CC(=O)O)NC(=O)[C@H](CC(C)C)NC(=O)[C@H](Cc1ccc(O)cc1)NC(=O)[C@H](CCCCN)NC(=O)[C@H](CO)NC(=O)[C@H](Cc1ccc(O)cc1)NC(=O)[C@H](CCC(=O)O)NC(=O)[C@H](CO)NC(=O)[C@@H](NC(=O)[C@@H](O)Cc1ccccc1)[C@@H](C)O)C(C)C)C(=O)N[C@@H](CC(N)=O)C(=O)N[C@H](C(N)=O)[C@@H](C)O (HELM PEPTIDE1{[O=C([C@@H](O)Cc1ccccc1)[*:2]].T.S.E.Y.S.K.Y.L.D.S.R.R.A.Q.D.F.V.Q.W.L.M.N.T.[am]}$$$$V2.0) | 
2 | 79.1 nM | Dose-Dependent Effect | H-FTSEYSKYLDSRRAQDFVQWLMNT-NH2 | 
3 |  |  | H-LTFTSEYSKYLDSRRAQDFVQWLMNT-NH2 | Activity [3]: Active; Activity [2]: inactive
4 |  |  | H-TSEYSKYLDSRRAQDFVQWLMNT-NH2 | IC50 [4]: 10000 nM; Activity [5]: 0.33%

— ChEMBL document CHEMBL4808176, “Optimization of Truncated Glucagon Peptides to Achieve Selective, High Potency, Full Antagonists” (J Med Chem, 2021)
